# Key:
# KDM6A (UTX) = KDM6A (UTX) (Homo sapiens, UniProt O15550); assay: Histone lysine demethylase AlphaLISA assay, KDM6A; assay type: biochemical; details: read-out: KDM6A HDME Inhibition IC50
# Outline: (§1)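 Enzyme 10 min pre-incubation; + compound (3% DMSO soln) 10 min; + biotin-H3 methyl-Lys peptide, 25 μM L-Asc, 10 μM α-KG, RT. Read: AlphaLISA acceptor beads, then streptavidin donor beads, RT, dark.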
# KDM4B (JMJD2B) = target: T1, KDM4B (JMJD2B) (Homo sapiens, UniProt O94953); assay: Histone lysine demethylase AlphaLISA assay, KDM4B; assay type: biochemical; details: read-out: KDM4B HDME Inhibition IC50
# T1 construct: 2-500; purchased BPS; host or cells: Bac (baculovirus system)
# T1 sequence (O94953 2-500): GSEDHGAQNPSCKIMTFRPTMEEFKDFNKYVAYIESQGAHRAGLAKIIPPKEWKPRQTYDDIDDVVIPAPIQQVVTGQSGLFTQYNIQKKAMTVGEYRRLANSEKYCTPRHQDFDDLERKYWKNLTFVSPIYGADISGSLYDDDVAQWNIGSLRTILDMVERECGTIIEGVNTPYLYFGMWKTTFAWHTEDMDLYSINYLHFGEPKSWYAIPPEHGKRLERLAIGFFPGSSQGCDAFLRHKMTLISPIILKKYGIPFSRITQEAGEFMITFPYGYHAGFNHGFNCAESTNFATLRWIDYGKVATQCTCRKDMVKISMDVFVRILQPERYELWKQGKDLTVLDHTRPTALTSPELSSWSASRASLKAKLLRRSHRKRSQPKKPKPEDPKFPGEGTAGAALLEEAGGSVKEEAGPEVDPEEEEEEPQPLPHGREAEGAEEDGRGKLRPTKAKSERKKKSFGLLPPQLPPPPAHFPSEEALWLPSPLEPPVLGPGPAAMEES
# Outline: as §1
# KDM6B (JMJD3) = target: T2, KDM6B (JMJD3) (Homo sapiens, UniProt O15054); assay: Histone lysine demethylase AlphaLISA assay, KDM6B; assay type: biochemical; details: read-out: KDM6B HDME Inhibition IC50
# T2 construct: 1043-end; purchased BPS; host or cells: Bac (baculovirus system)
# Outline: as §1
# KDM5B = target: T3, KDM5B (Homo sapiens, UniProt Q9UGL1); assay: Histone lysine demethylase immunofluorescence assay, U2OS cells transfected with KDM5B; assay type: cell-based; details: U2OS cells transfected with pCMVHA KDM5B; mark detected H3K4me2; 20 hours
# T3 construct: (a.a. 1-752); host or cells: U2OS
# T3 sequence (Q9UGL1 1-752): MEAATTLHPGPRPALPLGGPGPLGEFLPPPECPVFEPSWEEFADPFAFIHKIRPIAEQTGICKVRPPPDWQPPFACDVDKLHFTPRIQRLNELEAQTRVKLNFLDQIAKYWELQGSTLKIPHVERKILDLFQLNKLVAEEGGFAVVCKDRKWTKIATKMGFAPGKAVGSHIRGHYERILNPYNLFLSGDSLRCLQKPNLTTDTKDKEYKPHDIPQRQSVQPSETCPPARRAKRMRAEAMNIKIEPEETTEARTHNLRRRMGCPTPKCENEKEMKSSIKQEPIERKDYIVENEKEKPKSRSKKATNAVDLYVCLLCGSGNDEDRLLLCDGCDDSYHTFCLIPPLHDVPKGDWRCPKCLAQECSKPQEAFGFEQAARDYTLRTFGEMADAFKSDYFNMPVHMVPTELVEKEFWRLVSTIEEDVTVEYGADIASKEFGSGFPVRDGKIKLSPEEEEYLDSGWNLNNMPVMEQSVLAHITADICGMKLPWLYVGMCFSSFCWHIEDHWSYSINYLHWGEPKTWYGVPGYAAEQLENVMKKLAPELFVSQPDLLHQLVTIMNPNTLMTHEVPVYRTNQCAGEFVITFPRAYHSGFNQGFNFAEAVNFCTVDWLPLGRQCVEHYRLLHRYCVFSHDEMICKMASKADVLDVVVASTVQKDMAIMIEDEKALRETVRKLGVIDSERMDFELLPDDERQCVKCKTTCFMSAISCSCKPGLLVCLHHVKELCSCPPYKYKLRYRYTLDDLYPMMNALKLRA
# Outline: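 U2OS cells were transiently transfected with HA-tagged demethylase and reseeded after 6 h into compound-containing DMEM/10% FBS for 20 h. Cells were fixed in formaldehyde and immunostained for HA and the relevant histone methyl mark, then imaged. IC50 is based on mean mark staining in HA+ transfected cells.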
# Chain of KDM6A (UTX) (O15550 919-1401): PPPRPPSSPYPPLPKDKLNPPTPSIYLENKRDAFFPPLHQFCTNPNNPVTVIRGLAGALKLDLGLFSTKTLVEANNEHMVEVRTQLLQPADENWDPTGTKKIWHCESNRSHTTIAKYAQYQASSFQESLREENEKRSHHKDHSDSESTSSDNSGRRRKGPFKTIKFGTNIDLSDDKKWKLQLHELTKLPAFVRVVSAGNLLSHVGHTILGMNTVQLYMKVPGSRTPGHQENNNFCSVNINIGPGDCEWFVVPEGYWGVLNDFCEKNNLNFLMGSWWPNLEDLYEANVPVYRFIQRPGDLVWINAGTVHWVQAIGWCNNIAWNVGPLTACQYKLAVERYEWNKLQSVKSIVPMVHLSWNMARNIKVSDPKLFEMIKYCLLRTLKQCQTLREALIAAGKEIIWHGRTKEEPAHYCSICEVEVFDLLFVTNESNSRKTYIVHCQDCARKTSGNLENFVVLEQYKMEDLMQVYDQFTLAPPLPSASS
# T2 sequence (O15054 1043-1682 isoform O15054-1 limits assumed): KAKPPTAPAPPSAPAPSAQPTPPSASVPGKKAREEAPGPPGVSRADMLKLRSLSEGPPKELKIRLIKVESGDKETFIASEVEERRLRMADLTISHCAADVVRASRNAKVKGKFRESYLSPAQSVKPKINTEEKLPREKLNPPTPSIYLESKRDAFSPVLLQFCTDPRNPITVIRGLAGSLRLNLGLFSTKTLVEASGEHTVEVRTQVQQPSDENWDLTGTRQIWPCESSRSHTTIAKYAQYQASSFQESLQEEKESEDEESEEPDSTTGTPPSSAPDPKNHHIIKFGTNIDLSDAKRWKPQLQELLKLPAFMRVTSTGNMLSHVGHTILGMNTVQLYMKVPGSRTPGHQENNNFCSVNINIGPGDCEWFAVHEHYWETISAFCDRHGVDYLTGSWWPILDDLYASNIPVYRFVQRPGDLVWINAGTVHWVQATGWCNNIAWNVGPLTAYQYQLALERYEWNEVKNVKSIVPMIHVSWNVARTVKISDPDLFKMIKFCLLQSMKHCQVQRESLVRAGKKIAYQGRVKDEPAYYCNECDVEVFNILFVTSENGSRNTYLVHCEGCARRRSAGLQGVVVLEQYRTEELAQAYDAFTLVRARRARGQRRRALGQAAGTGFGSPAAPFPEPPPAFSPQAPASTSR
SMILES,IC50 (KDM6A (UTX)) [µM],IC50 (KDM4B (JMJD2B)) [µM],IC50 (KDM6B (JMJD3)) [µM],IC50 (KDM5B) [µM]
"CN(C)CCCCNCc1cc(CN)ccn1 [Compound 2, [2-({[4-(dimethylamino)butyl]-amino}methyl)pyridin-4-yl]methanamine]",> 2.5,> 2.5,> 2.5,< 0.25
"CN(C)CCNCc1ccnc(CNCCCN(C)Cc2ccccc2)c1 [Compound 18, benzyl[3-({[4-({[2-(dimethylamino)ethyl]-amino}methyl)pyridin-2-yl]methyl}-amino)propyl]-methylamine]",> 2.5,> 2.5,> 2.5,
"COCCNCc1ccnc(CNCCCN(C)Cc2ccccc2)c1 [Compound 19, benzyl(3-{[(4-{[(2-methoxyethyl)amino]-methyl}pyridin-2-yl)methyl]amino}-propyl)methylamine]",> 2.5,> 2.5,> 2.5,> 2.5
"COc1ccccc1CN1CCC(NC(=O)CNCc2cc(CNC3CC3)ccn2)CC1 [Compound 20, 2-[({4-[(cyclopropylamino)-methyl]pyridin-2-yl}methyl)amino]-N-{1-[(2-methoxyphenyl)methyl]-piperidin-4-yl}acetamide]",,< 0.25,> 2.5,0.25 to 2.5
"CCN(CCN(C)C)C(=O)CN(Cc1cc(CNC(=O)C(F)(F)F)ccn1)C(=O)C(F)(F)F [Compound 26, N-[(2-{[N-({[2-(dimethylamino)ethyl]-(ethyl)carbamoyl}-methyl)-2,2,2-trifluoroacetamido]-methyl}pyridin-4-yl)methyl]-2,2,2-trifIuoroacetamide]",> 2.5,,,< 0.25
"COC(=O)CNCc1cc(/C=N/C2CC2)ccn1 [Compound 59, methyl 2-[({4-[N-cyclopropyl-carboximidoyl]pyridin-2-yl}methyl)amino]-acetate]",> 2.5,< 0.25,> 2.5,> 2.5
"CCN(CC)CCCCNCc1cc(C2NCCCN2C)ccn1 (centres unmarked) [Compound 68, [4-(diethylamino)butyl]({[4-(1-methyl-1,3-diazinan-2-yl)pyridin-2-yl]methyl})amine]",> 2.5,,,< 0.25
"O=Cc1ccnc(CNCCCCN(Cc2ccccc2)C2CC2)c1 [Compound 109, 2-[({4-[benzyl-(cyclopropyl)amino]-butyl}amino)methyl]-pyridine-4-carbaldehyde]",> 2.5,< 0.25,,0.25 to 2.5
"O=Cc1ccnc(CNCC(=O)NC2CCN(Cc3ccccc3)C2)c1 (centres unmarked) [Compound 113, N-(1-benzylpyrrolidin-3-yl)-2-{[(4-formylpyridin-2-yl)methyl]amino}-acetamide]",> 2.5,< 0.25,> 2.5,> 2.5

# Reference: patent publication US9650339B2, “Inhibitors of histone demethylases” (Gilead Sciences, Inc., priority 2013, dated 2017)
